# Where a name gives a salt, the structure may show the parent alone.
# Columns and labels:
# [1] = Preliminary HCl-salt-formation and crystallisation experiments (relative stability of crystal forms); format: physicochemical; settings: compared with crystalline Form 1
# Excerpt: Crystalline Form 1 (or a predominance of crystalline Form 1) is often formed initially depending on the conditions, but, depending on the conditions (such as the type of solvent and the solubility of crystalline Form 1 in it, and/or the temperature and/or temperature time course, and/or the contact time of the crystalline Form 1 with the solvent), the crystalline Form 1 can then often convert to crystalline Form 2 to a greater or lesser extent when in contact with a suitable solvent i.e. a solvent suitable for converting crystalline Form 1 to crystalline Form 2.
# [2] = Plasma clearance in the pig-PET study; format: in vivo, Yorkshire-Landrace pig; settings: 50 micrograms/kg i.v.
# [3] = system: male Sprague Dawley rats; test: Toxicity Study 1: 7-day oral repeat-dose study in male Sprague Dawley rats; format: in vivo, rat; settings: for tolerability: male rats
# Protocol: Three male rats were added at each non-zero dose level for toxicokinetic evaluation. All doses and concentrations, including analyte concentration in plasma, are expressed in terms of the parent “free base” compound.
# The following endpoints/parameters were evaluated for toxicology animals: clinical observations, body weights, food consumption measurements, selected haematology and selected clinical chemistry results, liver weights, selected macroscopic and microscopic observations, and selected hepatic gene expression analysis. Toxicokinetic evaluation (serial profiling) was performed on samples collected from satellite animals on Days 1 and 7. For male rats dosed at 30 or 100 mg/kg/day, histopathology observations carried out were on kidneys, mesentery and mandibular lymph node only. For male rats dosed at 0 mg/kg/day (control) and 300 mg/kg/day, histopathology observations carried out were on adrenals, brain, heart, kidneys, liver, lung, mandibular lymph node, mesentery, stomach, testes, and thymus (except that mandibular lymph node observations were for 0 mg/kg/day dosed rats only).
# [4] = system: Sprague Dawley rats; test: Toxicity Study 2: 7-day oral dose range-finding study in Sprague Dawley rats; format: in vivo, rat
# Protocol: Three male rats and three female rats were added at 600 mg/kg/day and 3 female rats were added at 300 mg/kg/day for toxicokinetic evaluation.
# The following endpoints/parameters were evaluated for toxicology animals: clinical observations, body weights, food consumption, selected haematology, selected clinical chemistry, liver weights, and selected macroscopic and microscopic observations. Toxicokinetic evaluation was performed on samples collected on Day 1 (300 and 600 mg/kg/day dosing) and Day 7 (300 mg/kg/day dosing only).
# [5] = molecular target: H3 receptor (Sus scrofa, UniProt A0A287B9V8); test: Pig-PET study with [11C]GSK189254: pig brain H3 receptor occupancy over time and kon-koff limited model; settings: 50 micrograms/kg i.v.; for koff: iv
# [6] = molecular target: T1, histamine H3 receptor (Rattus norvegicus, UniProt Q9QYN8); settings: following oral administration to the rat; cited from earlier work
# T1 construct: from tissue; host or cells: rat cerebral cortex, crude homogenate
# [7] = system: rats; settings: certain oral doses; passive avoidance, water maze, object recognition, attentional set shift; cited from earlier work
# [8] = system: rodent models; settings: five choice task, object recognition, elevated plus maze, acquisition of novel task, passive avoidance; cited from earlier work
# [9] = average model: derived from average plasma data and average occupancy
# Sequence of H3 receptor (A0A287B9V8 1-448): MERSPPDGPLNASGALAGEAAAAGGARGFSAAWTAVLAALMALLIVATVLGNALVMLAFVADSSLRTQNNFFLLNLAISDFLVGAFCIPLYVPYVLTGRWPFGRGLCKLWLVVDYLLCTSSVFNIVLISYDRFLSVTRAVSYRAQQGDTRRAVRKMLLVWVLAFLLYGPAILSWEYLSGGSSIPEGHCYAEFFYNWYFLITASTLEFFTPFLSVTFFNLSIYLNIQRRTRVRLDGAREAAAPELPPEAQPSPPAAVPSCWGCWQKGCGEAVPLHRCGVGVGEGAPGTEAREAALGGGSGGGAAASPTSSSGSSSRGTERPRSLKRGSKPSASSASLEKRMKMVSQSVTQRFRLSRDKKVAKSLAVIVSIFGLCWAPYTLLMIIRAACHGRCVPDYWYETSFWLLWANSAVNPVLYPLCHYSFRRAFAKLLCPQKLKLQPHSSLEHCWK
# T1 sequence (Q9QYN8 whole entry): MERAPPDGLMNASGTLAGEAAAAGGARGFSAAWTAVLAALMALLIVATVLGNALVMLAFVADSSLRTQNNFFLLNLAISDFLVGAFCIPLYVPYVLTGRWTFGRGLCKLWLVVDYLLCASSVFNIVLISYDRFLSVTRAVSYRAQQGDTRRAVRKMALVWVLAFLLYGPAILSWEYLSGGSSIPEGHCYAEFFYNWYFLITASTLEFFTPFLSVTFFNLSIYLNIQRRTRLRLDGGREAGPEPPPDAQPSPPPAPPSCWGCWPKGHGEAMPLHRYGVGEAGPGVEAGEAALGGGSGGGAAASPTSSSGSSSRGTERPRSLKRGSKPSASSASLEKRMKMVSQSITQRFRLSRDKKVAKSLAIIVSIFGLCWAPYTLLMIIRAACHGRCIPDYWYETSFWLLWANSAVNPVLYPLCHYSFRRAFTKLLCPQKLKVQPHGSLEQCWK
smiles,measurement,setting,value
CC(C)N1CCN(C(=O)c2ccc(OC3CCOCC3)cc2)CC1 [Example 3],thermodynamic stability of the crystal form,[1],more thermodynamically stable than crystalline Form 1
CC(C)N1CCN(C(=O)c2ccc(OC3CCOCC3)cc2)CC1.Cl [Example E1],Plasma clearance,[2]; pig 1 (individual study),2.9 L/h
same,tolerability,[3]; 300 mg/kg/day oral for 7 days (measured as the free base),moderately well tolerated
same,tolerability,[3]; 30 or 100 mg/kg/day oral for 7 days (measured as the free base),well tolerated
same,food consumption,"[3]; rat, in vivo, po, 300 mg/kg/day",ca. 0.80 ×pretreatment
same,tolerability,"[4]; female rats, 300 mg/kg/day oral for 7 days (measured as the free base)",moderately well tolerated
same,tolerability (preliminary conclusion from Toxicity Studies 1 and 2),"[4]; male and female rats, 7 days oral repeat dosing at doses of up to 300 mg/kg/day",well tolerated or moderately well tolerated
same,koff,"[5]; PIG1, pig, pig 1 (individual study), estimated model parameter",6.33e-05 s⁻¹
same,Kd (koff/kon),[5]; [9],3.37 ng/mL
same,Kd (koff/kon),"[5]; mean of the individually estimated parameters, n=3 pigs",3.35 ng/mL
same,"reduction in pig brain H3 receptor occupancy over time, as compared to salt B","[5]; n=3 pigs, preliminary measurements",generally faster reduction in pig brain H3 receptor occupancy
same,koff,"[5]; pig, average model: derived from average plasma data and average occupancy",0.000152 s⁻¹
same,koff,"[5]; pig, mean of the individually estimated parameters, n=3 pigs",0.000243 s⁻¹
same,koff,"[5]; pig, pig 2 (individual study), estimated model parameter",0.00019 s⁻¹
same,koff,"[5]; pig, pig 3 (individual study), estimated model parameter",0.000477 s⁻¹
CNC(=O)c1ccc(Oc2ccc3c(c2)CCN(C2CCC2)CC3)nc1 [GSK189254],[3]R-α-methylhistamine ex vivo binding in the rat cortex,[6],inhibited
same,performance of rats in cognition paradigms,[7],improved performance
CC(C)(C)CCC#C[C@@H]1C[C@H]1c1c[nH]cn1 [GT-2331],effect in rodent cognition models,[8],cognitive enhancing properties
O=C(c1ccc(OCCCc2cnc[nH]2)cc1)C1CC1 [ciproxifan],effect in rodent cognition models,[8],cognitive enhancing properties
NC(=NCc1ccc(Cl)cc1)SCCCc1cnc[nH]1 [clobenpropit],effect in rodent cognition models,[8],cognitive enhancing properties
"CC(C)N1CCCN(C(=O)c2ccc(OC3CCOCC3)cc2)CC1 [salt B, reference compound]",Plasma clearance,[2]; average model: derived from average plasma data,2.9 L/h
same,Kd (koff/kon),[5]; [9],1.80 ng/mL
S=C(NC1CCCCC1)N1CCC(c2cnc[nH]2)CC1 [thioperamide],effect in rodent cognition models,[8],cognitive enhancing properties
